Entries after “also recorded” stand apart in the source; their conditions may differ.
How the values were obtained:
CT26 cells = assay: Colorectal tumor model (hepatic metastasis); assay type: in vivo, mouse; conditions: 25 mg/kg/day i.p., 2 weeks after s.c. implantation
Text: Figure 7 A41 decreases metastasis of colorectal cancer cells in vivo (A–C) Therapeutic effect of A41 on the pulmonary metastasis formation of colorectal circulating tumoral cells (CT26 cells). In control, A41-, and cisplatin-treated mice, metastasis surface (A), survival (B), and body weight (C) were quantified (N = 10 mice; ∗p < 0.05 vs. controls). (D) Therapeutic effect of A41 on colorectal tumor-dependent hepatic metastasis formation (N = 5–8 mice; ∗p < 0.05, ∗∗p < 0.01, and ∗∗∗p < 0.001 vs. controls).
8 weeks-old BALB/c female mice were obtained from the School of Veterinary Sciences at the National University of La Plata and treated in accordance with the Canadian Council on Animal Care and ARRIVE guidelines. 1x10^6 CT26 viable cells were resuspended in PBS (100 μL) and injected subcutaneously into the right flank of each animal. Mice were distributed and treated as follows: control, consist in a daily intraperitoneal (ip) administration of vehicle (5% DMSO, 45% PEG400); A41, ip administration of 25 mg/kg BW/day; 5-FU, ip administration 20 mg/kgBW/week in sterile water; A41+5-FU, ip administration of A41 and 5-FU treatments. Liver metastases were identified and quantified under a stereoscopic magnifying glass. These lesions were distinguished by their isolated circular shape, their marked whitish color contrasting with the reddish liver tissue, and their raised appearance.

Androgen (Testosterone) = Androgen (Testosterone) (Homo sapiens, UniProt P10275); assay: Safety screen; assay type: binding
Androgen (Testosterone), sequence (P10275 whole entry): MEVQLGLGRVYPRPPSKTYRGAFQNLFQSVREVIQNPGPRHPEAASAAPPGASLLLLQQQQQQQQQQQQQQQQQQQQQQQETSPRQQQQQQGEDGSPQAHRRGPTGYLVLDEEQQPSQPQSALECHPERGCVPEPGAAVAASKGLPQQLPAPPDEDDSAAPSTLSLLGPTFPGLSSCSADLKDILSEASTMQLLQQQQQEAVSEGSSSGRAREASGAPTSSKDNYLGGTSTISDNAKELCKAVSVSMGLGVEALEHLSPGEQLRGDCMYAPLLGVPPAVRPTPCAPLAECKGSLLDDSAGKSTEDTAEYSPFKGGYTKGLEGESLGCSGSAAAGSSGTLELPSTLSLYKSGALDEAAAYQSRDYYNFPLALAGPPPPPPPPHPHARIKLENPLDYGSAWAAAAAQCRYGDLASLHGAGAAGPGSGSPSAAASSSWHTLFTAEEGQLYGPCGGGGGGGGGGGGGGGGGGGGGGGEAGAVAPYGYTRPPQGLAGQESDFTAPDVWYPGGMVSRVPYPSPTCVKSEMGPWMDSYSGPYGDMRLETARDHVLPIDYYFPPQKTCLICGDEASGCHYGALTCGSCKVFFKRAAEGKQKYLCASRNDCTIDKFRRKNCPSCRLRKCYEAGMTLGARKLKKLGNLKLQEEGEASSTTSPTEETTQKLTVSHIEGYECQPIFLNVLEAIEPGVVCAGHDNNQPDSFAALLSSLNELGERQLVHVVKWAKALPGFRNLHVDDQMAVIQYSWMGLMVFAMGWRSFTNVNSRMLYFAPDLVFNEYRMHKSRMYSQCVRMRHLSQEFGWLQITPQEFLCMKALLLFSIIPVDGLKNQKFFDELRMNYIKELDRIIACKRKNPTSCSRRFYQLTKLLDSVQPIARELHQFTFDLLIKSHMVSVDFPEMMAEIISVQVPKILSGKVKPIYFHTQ
Description: (§1) Blood cell counts, kinase profiler, safety screen, bacterial cytotoxicity, Ames, micronucleus assays were performed by the company Eurofins (France). The kinase profiler was performed by the company Eurofins (Discovery, Panlab and Cerep).

Angiotensin AT1 = Angiotensin AT1 (Homo sapiens, UniProt P30556); assay: Safety screen; assay type: binding
Angiotensin AT1, sequence (P30556 whole entry): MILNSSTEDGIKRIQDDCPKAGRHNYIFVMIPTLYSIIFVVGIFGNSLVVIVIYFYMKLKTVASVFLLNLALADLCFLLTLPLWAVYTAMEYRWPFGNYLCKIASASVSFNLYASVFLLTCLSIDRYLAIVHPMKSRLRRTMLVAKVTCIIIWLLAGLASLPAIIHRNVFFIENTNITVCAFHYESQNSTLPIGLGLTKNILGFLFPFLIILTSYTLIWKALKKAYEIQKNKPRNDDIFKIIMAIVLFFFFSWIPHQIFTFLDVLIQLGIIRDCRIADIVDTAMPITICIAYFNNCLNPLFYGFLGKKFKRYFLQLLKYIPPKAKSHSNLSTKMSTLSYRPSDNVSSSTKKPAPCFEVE
Description: as §1

Muscarinic M3 = Muscarinic M3 (Homo sapiens, UniProt P20309); assay: Safety screen; assay type: binding
Muscarinic M3, sequence (P20309 whole entry): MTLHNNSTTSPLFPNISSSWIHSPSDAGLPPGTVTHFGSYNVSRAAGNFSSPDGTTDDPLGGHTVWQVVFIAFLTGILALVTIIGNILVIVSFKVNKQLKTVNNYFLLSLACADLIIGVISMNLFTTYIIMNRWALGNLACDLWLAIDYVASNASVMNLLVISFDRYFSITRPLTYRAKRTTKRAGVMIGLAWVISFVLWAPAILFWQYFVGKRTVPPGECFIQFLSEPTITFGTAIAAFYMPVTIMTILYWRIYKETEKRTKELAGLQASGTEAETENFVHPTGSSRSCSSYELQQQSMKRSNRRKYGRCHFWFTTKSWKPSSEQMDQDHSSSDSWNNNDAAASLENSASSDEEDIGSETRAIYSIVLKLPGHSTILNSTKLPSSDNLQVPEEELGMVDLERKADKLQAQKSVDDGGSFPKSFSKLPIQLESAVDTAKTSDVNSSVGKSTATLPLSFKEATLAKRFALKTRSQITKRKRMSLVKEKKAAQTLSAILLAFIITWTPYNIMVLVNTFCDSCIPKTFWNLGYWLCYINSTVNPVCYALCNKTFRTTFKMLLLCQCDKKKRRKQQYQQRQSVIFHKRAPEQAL
Description: Blood cell counts, kinase profiler, safety screen, bacterial cytotoxicity, Ames, micronucleus assays were performed by the company Eurofins (France).

Potassium Channel [KATP] = Potassium Channel [KATP] (Cricetus cricetus, UniProt Q09427); assay: Safety screen; assay type: binding, hamster
Description: as §1

ALK2(h) = ALK2(h) (Homo sapiens, UniProt Q04771); assay: Kinase Profiler; assay type: biochemical
ALK2(h), sequence (Q04771 21-509): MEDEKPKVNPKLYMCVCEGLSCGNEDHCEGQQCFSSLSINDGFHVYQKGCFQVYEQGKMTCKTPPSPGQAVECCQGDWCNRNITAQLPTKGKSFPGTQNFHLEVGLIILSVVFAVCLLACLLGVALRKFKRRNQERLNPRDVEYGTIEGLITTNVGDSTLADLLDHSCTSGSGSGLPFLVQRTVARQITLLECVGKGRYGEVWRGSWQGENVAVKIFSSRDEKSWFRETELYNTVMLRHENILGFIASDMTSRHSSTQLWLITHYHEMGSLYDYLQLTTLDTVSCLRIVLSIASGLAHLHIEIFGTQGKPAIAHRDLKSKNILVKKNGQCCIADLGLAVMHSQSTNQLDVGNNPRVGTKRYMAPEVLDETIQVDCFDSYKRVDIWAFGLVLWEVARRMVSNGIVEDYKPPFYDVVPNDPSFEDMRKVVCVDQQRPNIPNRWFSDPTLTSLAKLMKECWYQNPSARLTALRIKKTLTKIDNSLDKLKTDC
Description: (§2) The kinase profiler was performed by the company Eurofins (Discovery, Panlab and Cerep).

ASK1(h) = ASK1(h) (Homo sapiens, UniProt Q99683); assay: Kinase Profiler; assay type: biochemical
Description: as §1

CDK3/cyclinE(h) = CDK3/cyclinE(h) (Homo sapiens, UniProt Q00526); assay: Kinase Profiler; assay type: biochemical
Description: as §1

CDK9/cyclin T1(h) = CDK9/cyclin T1(h) (Homo sapiens, UniProt P50750); assay: Kinase Profiler; assay type: biochemical
CDK9/cyclin T1(h), sequence (P50750 whole entry): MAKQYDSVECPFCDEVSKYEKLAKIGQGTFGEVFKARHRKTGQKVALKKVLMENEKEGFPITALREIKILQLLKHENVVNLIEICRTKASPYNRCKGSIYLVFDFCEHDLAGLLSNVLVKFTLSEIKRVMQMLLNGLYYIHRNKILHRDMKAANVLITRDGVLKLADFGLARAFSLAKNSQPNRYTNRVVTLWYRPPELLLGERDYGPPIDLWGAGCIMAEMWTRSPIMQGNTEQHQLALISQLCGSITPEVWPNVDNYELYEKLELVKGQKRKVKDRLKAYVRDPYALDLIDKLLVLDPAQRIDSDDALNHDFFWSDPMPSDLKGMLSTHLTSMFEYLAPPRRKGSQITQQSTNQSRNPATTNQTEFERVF
CDK9/cyclin T1(h), sequence (O60563 whole entry partner): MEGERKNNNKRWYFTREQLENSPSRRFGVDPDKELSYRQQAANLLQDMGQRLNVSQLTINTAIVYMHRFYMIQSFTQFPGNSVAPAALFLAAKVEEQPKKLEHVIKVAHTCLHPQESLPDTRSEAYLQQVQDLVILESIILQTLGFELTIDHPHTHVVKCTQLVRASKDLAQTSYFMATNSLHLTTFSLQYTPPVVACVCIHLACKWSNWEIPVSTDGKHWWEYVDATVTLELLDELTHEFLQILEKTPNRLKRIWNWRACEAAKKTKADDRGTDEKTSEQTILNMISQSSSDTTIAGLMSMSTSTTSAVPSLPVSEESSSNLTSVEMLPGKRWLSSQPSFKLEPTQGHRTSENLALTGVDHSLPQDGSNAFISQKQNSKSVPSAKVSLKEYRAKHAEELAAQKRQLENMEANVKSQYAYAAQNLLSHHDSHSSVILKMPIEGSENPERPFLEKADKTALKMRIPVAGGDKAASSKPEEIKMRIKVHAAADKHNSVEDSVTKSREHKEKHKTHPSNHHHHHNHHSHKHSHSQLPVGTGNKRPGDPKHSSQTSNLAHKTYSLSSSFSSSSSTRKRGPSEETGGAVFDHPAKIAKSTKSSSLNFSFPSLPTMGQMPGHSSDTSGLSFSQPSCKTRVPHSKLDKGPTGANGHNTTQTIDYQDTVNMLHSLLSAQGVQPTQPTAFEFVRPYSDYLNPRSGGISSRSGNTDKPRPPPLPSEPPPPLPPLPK
Description: as §1

CDK14/cyclinY(h) = CDK14/cyclinY(h) (Homo sapiens, UniProt O94921); assay: Kinase Profiler; assay type: biochemical
Description: as §1

CDKL2(h) = CDKL2(h) (Homo sapiens, UniProt Q92772); assay: Kinase Profiler; assay type: biochemical
Description: as §2

CK1α(h) = CK1α(h) (Homo sapiens, UniProt P48729); assay: Kinase Profiler; assay type: biochemical
CK1α(h), sequence (P48729 whole entry): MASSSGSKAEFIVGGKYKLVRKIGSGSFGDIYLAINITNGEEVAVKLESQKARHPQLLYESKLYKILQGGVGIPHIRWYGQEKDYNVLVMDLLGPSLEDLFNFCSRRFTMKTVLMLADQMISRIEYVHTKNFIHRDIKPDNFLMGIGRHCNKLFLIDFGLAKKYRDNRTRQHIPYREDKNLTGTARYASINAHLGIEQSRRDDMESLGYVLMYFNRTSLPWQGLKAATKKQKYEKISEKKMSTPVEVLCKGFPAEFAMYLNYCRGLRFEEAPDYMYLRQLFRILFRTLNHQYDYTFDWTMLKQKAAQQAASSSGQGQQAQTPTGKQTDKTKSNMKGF
Description: as §1

cSRC(h) = cSRC(h) (Homo sapiens, UniProt P12931); assay: Kinase Profiler; assay type: biochemical
Description: as §2

DYRK2(h) = DYRK2(h) (Homo sapiens, UniProt Q92630); assay: Kinase Profiler; assay type: biochemical
Description: as §2

EphB2(h) = EphB2(h) (Homo sapiens, UniProt P29323); assay: Kinase Profiler; assay type: biochemical
Description: as §1

FGFR1(V561M)(h) = FGFR1(V561M)(h) (Homo sapiens, UniProt P11362, V561M); assay: Kinase Profiler; assay type: biochemical
Description: as §2

Fms(h) = Fms(h) (Homo sapiens, UniProt P07333); assay: Kinase Profiler; assay type: biochemical
Description: as §2

IRAK1(h) = IRAK1(h) (Homo sapiens, UniProt P51617); assay: Kinase Profiler; assay type: biochemical
Description: as §1

JAK3(h) = JAK3(h) (Homo sapiens, UniProt P52333); assay: Kinase Profiler; assay type: biochemical
Description: as §2

Lck(h) activated = Lck(h) activated (Homo sapiens, UniProt P06239); assay: Kinase Profiler; assay type: biochemical
Description: as §2

LKB1(h) = LKB1(h) (Homo sapiens, UniProt Q15831); assay: Kinase Profiler; assay type: biochemical
LKB1(h), sequence (Q15831 whole entry): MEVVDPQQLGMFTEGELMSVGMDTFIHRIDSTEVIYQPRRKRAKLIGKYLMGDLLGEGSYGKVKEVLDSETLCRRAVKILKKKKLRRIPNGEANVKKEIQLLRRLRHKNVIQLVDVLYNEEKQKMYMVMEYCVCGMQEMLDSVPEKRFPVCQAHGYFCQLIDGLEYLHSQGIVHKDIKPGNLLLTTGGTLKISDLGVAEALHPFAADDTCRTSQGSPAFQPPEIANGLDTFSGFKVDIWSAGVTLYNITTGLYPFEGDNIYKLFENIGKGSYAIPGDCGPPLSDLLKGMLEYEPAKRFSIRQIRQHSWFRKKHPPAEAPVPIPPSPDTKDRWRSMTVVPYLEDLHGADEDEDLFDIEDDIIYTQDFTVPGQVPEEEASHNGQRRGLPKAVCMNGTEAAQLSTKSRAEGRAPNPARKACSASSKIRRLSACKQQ
LKB1(h), sequence (Q7RTN6 whole entry partner): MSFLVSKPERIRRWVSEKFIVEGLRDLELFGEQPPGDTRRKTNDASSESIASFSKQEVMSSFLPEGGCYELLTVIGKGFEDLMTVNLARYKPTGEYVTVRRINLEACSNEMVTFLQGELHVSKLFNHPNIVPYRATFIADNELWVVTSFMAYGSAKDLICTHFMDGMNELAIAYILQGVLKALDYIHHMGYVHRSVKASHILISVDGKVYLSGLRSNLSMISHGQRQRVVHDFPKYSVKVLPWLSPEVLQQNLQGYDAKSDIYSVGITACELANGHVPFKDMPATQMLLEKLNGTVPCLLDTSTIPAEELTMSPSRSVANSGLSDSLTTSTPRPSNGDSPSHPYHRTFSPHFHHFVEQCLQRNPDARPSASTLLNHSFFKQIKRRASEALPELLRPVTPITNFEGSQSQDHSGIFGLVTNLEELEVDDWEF
LKB1(h), sequence (Q9Y376 whole entry partner): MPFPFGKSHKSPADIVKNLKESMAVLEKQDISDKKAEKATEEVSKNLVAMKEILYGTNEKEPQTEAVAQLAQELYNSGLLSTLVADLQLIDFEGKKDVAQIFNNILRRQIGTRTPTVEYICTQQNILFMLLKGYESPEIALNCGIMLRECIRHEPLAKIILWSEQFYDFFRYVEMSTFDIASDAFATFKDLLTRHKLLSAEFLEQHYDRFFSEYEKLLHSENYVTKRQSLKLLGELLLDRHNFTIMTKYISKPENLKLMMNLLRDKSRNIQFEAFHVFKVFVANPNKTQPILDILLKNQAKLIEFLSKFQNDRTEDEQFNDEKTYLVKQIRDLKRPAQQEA
Description: as §2

PAK2(h) = PAK2(h) (Homo sapiens, UniProt Q13177); assay: Kinase Profiler; assay type: biochemical
Description: as §1

PKBβ(h) = PKBβ(h) (Homo sapiens, UniProt P31751); assay: Kinase Profiler; assay type: biochemical
Description: as §2

PKG1α(h) = PKG1α(h) (Homo sapiens, UniProt Q13976); assay: Kinase Profiler; assay type: biochemical
Description: as §2

Rse(h) = Rse(h) (Homo sapiens, UniProt Q06418); assay: Kinase Profiler; assay type: biochemical
Description: as §2

Rsk1(h) = Rsk1(h) (Homo sapiens, UniProt Q15418); assay: Kinase Profiler; assay type: biochemical
Description: as §2

SAPK3(h) = SAPK3(h) (Homo sapiens, UniProt P53778); assay: Kinase Profiler; assay type: biochemical
Description: as §2

Snk(h) = Snk(h) (Homo sapiens, UniProt Q9NYY3); assay: Kinase Profiler; assay type: biochemical
Description: as §2

TAO3(h) = TAO3(h) (Homo sapiens, UniProt Q9H2K8); assay: Kinase Profiler; assay type: biochemical
Description: as §1

TSSK1(h) = TSSK1(h) (Homo sapiens, UniProt Q9BXA7); assay: Kinase Profiler; assay type: biochemical
Description: as §2

ULK1(h) = ULK1(h) (Homo sapiens, UniProt O75385); assay: Kinase Profiler; assay type: biochemical
Description: as §1

ATR/ATRIP(h) = ATR/ATRIP(h) (Homo sapiens, UniProt Q13535); assay: Kinase Profiler; assay type: biochemical
Description: as §2

DNA-PK(h) = DNA-PK(h) (Homo sapiens, UniProt P78527); assay: Kinase Profiler; assay type: biochemical
Description: as §2

PI3K (p110a/p65a)(m) = assay: Kinase Profiler; assay type: biochemical, mouse
Description: as §1

## COc1ccc(OC)c(NS(=O)(=O)c2ccc(NC(=O)CCSc3ccc(C)cc3)cc2)c1 [Compound A41]
CT26 cells
  number of liver metastases: significantly reduced the number of metastases; also recorded: more effective than 5-fluorouracil (5FU)
Androgen (Testosterone)
  % inh.: 10%
Angiotensin AT1
  % inh.: 17%
Muscarinic M3
  % inh.: 4%
Potassium Channel [KATP]
  % inh.: 11%
ALK2(h)
  Activity(%): 100%
ASK1(h)
  Activity(%): 94%
CDK3/cyclinE(h)
  Activity(%): 77%
CDK9/cyclin T1(h)
  Activity(%): 92%
CDK14/cyclinY(h)
  Activity(%): 89%
CDKL2(h)
  Activity(%): 103%
CK1α(h)
  Activity(%): 102%
cSRC(h)
  Activity(%): 111%
DYRK2(h)
  Activity(%): 104%
EphB2(h)
  Activity(%): 97%
FGFR1(V561M)(h)
  Activity(%): 129%
Fms(h)
  Activity(%): 112%
IRAK1(h)
  Activity(%): 104%
JAK3(h)
  Activity(%): 106%
Lck(h) activated
  Activity(%): 90%
LKB1(h)
  Activity(%): 107%
PAK2(h)
  Activity(%): 110%
PKBβ(h)
  Activity(%): 116%
PKG1α(h)
  Activity(%): 113%
Rse(h)
  Activity(%): 102%
Rsk1(h)
  Activity(%): 122%
SAPK3(h)
  Activity(%): 105%
Snk(h)
  Activity(%): 112%
TAO3(h)
  Activity(%): 97%
TSSK1(h)
  Activity(%): 103%
ULK1(h)
  Activity(%): 106%
ATR/ATRIP(h)
  Activity(%): 93%
DNA-PK(h)
  Activity(%): 122%
PI3K (p110a/p65a)(m)
  Activity(%): 100%

From PMC12281424, “A Rac-specific competitive inhibitor of guanine nucleotide binding reduces metastasis in triple-negative breast cancer” (Cell Reports Medicine, 2025)
